test system: SARS-CoV-2; test: CPE inhibition assay, anti-SARS-CoV-2 virus activity in vitro (Test Example 4); type: cell-based; conditions: CPE inhibition at 10 µM; VeroE6-TMPRSS2 cells; MOI 0.01; third day post infection; average of three tests

Compound | Anti SARS-CoV-2 activity
(6S,11a8)-1,3,6-tribenzyl-11b-hydroxy-11a-methylhexahydro-2H-pyrrolo[2',1':3,4]pyrazino [1,2-a][1,3,5]triazine-2,4,7(3H,6 H)-trione [Compound 12A] | B (a CPE inhibition effect of less than 5% but 1% or more)
O=C(NCc1ccc2ccccc2c1)[C@@H]1CC[C@H]2N1C(=O)[C@@H](Cc1ccccc1)N1C(=O)N(CC3CCCC3)C(=O)N(CC3CCCC3)[C@]21O [Compound 17D, (6R,9S,11aR,11bR)-6-Benzyl-1,3-bis (cyclopentylmethyl)-11b-h ydroxy-N-(naphthalen-2-ylmethyl)-2,4,7-trioxodecahydro-2H-pyrrolo[2',1':3,4] pyridazino[1,2-a][1,3,5] triazine-9-carboxamide] | A (a CPE inhibition effect of 5% or more)
(6S,13aS)-1,3,6-tribenzyl-13b-hydroxy-1,13,13a,13b-tetrahydro-2H-[1,3,5] triazino[2',1':3,4]pyraz ino[1,2-a]indole-2,4.7(3H,6H)-trione [Compound 24A] | C (less than 1%)
(6R,9S,11aR,11bR)-1,3-Dibenzyl-11b-hydroxy-6-(4 -methoxybenzyl)-N-(naphthalen-2-ylmethyl)-2,4,7-trioxodecahydro-2H-pyrrolo[2',1':3,4] pyridazino[1,2-a][1.3.5] triazine-9-carboxamide [Compound 6D] | B (a CPE inhibition effect of less than 5% but 1% or more)
(6R,10R.11aS)-1,3.6-tribenzyl-10-(benzyl oxy)-11b-hydroxyhexahydro-2H-pyrrolo [2',1':3,4]pyridazino[1,2-a][1,3,5 triazine-2,4,7(3H.6H)-trione [Compound 14A] | B (a CPE inhibition effect of less than 5% but 1% or more)
CCN(C(=O)NCCCN(C)C)C(=O)[C@@H]1CC[C@H]2N1C(=O)[C@@H](Cc1ccccc1)N1C(=O)N(Cc3cccs3)C(=O)N(Cc3cccs3)C21O (stereo partly drawn) [Compound 18H, (6R,9S,11aR)-6-benzyl-N-((3-(dimethylamino)propyl)carbamoil)-N-ethyl-11b-Hydroxy-2,4,7-trioxo-1,3-bis(thiophen-2-ylmethyl)decahydro-2H-pyrrolo[2',1':3,4] pyrazino[1,2-a][1,3,5]triazine-9-carboxamide] | A (a CPE inhibition effect of 5% or more)
Ethyl (6R,9S,11aR,11bR)-1,3-dibenzyl-11b-hydroxy-6-methyl-2,4,7-trioxodecahydro-2H-pyrrolo[2',1':3,4]pyrazino[1,2-a] [1.3.5]triazine-9-carboxylate [Compound 2A] | C (less than 1%)
(6R,9S,11aR,11bR)-1,3-bis(furan-2-ylmethyl)-11b-hydroxy-6-isopropyl-N-(naphthalen-2-ylmethyl)-2,4,7-trioxodecahydro-2H-pyrrolo[2',1':3,4]pyridazin e[1,2-a] [1,3,5]triazine-9-carboxamide [Compound 28D] | A (a CPE inhibition effect of 5% or more)
(6S,9R,11aS,11bS)-1,3-Dibenzyl-11b-hydroxy-6-isopropyl-N-(naphthalen-2^-ylmethyl)-2,4,7-trioxodecahydro-2H-pyrrolo[2',1':3,4]pyrazino[ 1,2-a][1,3,5]triazine-9-carboxamide [Compound 26D] | A (a CPE inhibition effect of 5% or more)
(6R,9S,11aR,11bR)-1,3-Dibenzyl-11b-hydroxy-6-isopropyl-N-(naphthalen-2-ylmethyl)-2,4,7-trioxodecahydro-2H-pyrrolo[ 2',1':3,4]pyrazino[1,2-a] [1,3,5]triazine^-9^-carbamide [Compound 3D] | A (a CPE inhibition effect of 5% or more)
(6R.9S.11aR.11bR)-1,3-Dibenzyl-6-(4-fluorobenzyl)-11b-hydroxy-N-(naphthalen-2-yl methyl)-2,4,7-trioxodecahydro-2H-pyrrolo[2',1':3,4]pyridazine [1,2-a][1,3,5]triazine-9-carboxamide [Compound 5D] | A (a CPE inhibition effect of 5% or more)
(6R,9S,10aR)-1,3,6-tribenzyl-10b-hydroxy-N-(naphthalen-2-ylmethyl)-2,4,7-trioxodecahydroazeto[2',1 ':3,4]pyrazino[1.2-a][1,3,5]triazine-9-carboxamide [Compound 20D] | A (a CPE inhibition effect of 5% or more)
(6S,9R,11aS,11bS)-1,3,6-Tribenzyl-11b-hydroxy-N-(naphthalen-2-ylmethyl)-2,4 ,7-trioxo-2H-pyrrolo [2',1':3,4]pyrazino [1,2-a][1,3,5]triazine-9-carboxamide [Compound 4D] | A (a CPE inhibition effect of 5% or more)
(6R,9S,11aR,11bR)-1,3-Dibenzyl-11b-hydroxy-N,6-bis(naphthalen-2-ylmethyl)-2.4.7-trioxodecahydro-2H-pyrrolo[2'.1':3,4] pyrazino[1,2-a][1,3,5] triazine-9-carboxamide [Compound 7D] | B (a CPE inhibition effect of less than 5% but 1% or more)
Ethyl (6S,9R,11aS,11bS)-1,3,6-tribenzyl-11b-hydroxy-2,4.7-trioxodecahydro-2H-pyrrolo [2',1':3,4]pyrazino[1,2-a][1,3,5] triazine-9-carboxylate [Compound 4A] | C (less than 1%)
(6R,9S,11aR,11bR)-6-benzyl-11b-hydroxy-N-(naphthalen-2-ylmethyl)-2 ,4,7-trioxo-1,3-bis (thien-2-ylmethyl) decahydro-2H-pyrrolo [2',1':3,4]pyridazino[1,2-a] [1.3,5]triazine-9-carboxamide [Compound 18D] | C (less than 1%)
Ethyl (6R,9S,11aR,11bR)-1.3 dibenzyl 11b-hydroxy 6 isobutyl-2.4.7 trioxodecahydro-2H pyrrolo[2',1':3,4] pyrazino[1.2 a][1.3.5] triazine 9 carboxylate [Compound 30A] | A (a CPE inhibition effect of 5% or more)
(6R,9S,11aR)-11b-Hydroxy-6-isopropyl-N-(naphthalen-2-ylmethyl)-2,4,7-trioxo-1,3-bis(thien-2-ylmethyl)decahydro- 2H-pyrrolo[2',1':3,4] pyridazine[1,2-a][1,3,5] triazine-9-carboxamide [Compound 27D] | A (a CPE inhibition effect of 5% or more)
CC(C)[C@@H]1C(=O)N2[C@H](C3=NCc4cn(-c5c[nH]c6ccccc56)c5cccc3c45)CC[C@@H]2[C@@]2(O)N(Cc3ccccc3)C(=O)N(Cc3ccccc3)C(=O)N12 [Compound 3H, (6R,95,11aR,11bR)-9-(1-((1H-indole-3-yl))-1,3-dihydropyrrolo[4,3,2-de]isoquinolin-5-yl)-1,3-dibenzyl-11b-hydroxy-6-isopropylhexahydro-2H-pyrrolo [2',1':3,4]pyridazine [1,2-a][1,3,5] triazine-2,4,7 (3H. 6H)-trione] | A (a CPE inhibition effect of 5% or more)
(6 R,9 S,11aR,11bR)-1,3-Dibenzyl-N-(bicyclo[1,1,1]penta n-1-yl) 11b-Hydroxy-6-isopropyl-2,4,7-trioxodecahydro- 2H-pyrrolo [2",1":3,4]pyrazino[ 1,2-a][1,3,5] triazine-9-carboxamide [Compound 3I] | A (a CPE inhibition effect of 5% or more)

same assay, conditions: Severe acute respiratory syndrome coronavirus 2, VeroE6/TMPRSS2, 72 h, read-out: Anti SARS-CoV-2 activity

Compound | inhibition at 10 µM [%]
CCOC(=O)[C@@H]1CCC2=C3N(Cc4ccccc4)C(=O)N(Cc4ccccc4)C(=O)N3[C@H](Cc3ccccc3)C(=O)N21 (stereo in doubt) [Compound 4B, Ethyl (6R,9S)-1,3,6-tribenzyl-2,4,7-trioxo-1,3,4,6,7,9,10,11-octahydro-2H-pyrrolo[2',1':3,4] pyrazino[1,2-a][1,3,5]triazine-9-carboxylate] | > 5
O=C1[C@@H](Cc2ccccc2)N2C(=O)N(Cc3ccccc3)C(=O)N(Cc3ccccc3)C2=C2CCCCN12 [Compound 13B, (R) 1,3,6-Tribenzyl-9,10,11,12-tetrahydropyrido[2',1':3,4] pyrazino[1,2-a][1,3,5]triazine-2,4,7(1H,3H,6H)-trione] | 1 to 5
CCOC(=O)[C@@H]1CC[C@H]2N1C(=O)[C@@H](Cc1ccccc1)N1C(=O)N(Cc3ccccc3)C(=O)N(Cc3ccccc3)[C@]21O [Compound 1A, Ethyl (6R,9S,11aR,11bR)-1,3,6-tribenzyl-11b-hydroxy-2,4,7-trioxodecahydro-2H-pyrrolo[2',1':3,4]pyrazino[1,2-a][1,3,5]triazine-9-carboxylate] | < 1
O=C1[C@@H](Cc2ccccc2)N2C(=O)N(Cc3ccccc3)C(=O)N(Cc3ccccc3)C2=C2CCCN12 [Compound 9B, (R) 1.3.6-Tribenzyl-1,9,10,11-tetrahydro-2H-pyrrolo[2',1':3,4] pyridazino[1,2-a][1,3,5]triazine-2,4,7(3H,6H)-trione] | < 1
O=C(NCc1ccc2ccccc2c1)[C@@H]1CCC2=C3N(Cc4ccccc4)C(=O)N(Cc4ccccc4)C(=O)N3[C@H](Cc3ccccc3)C(=O)N21 [Compound 1E, (6R,9S)-1,3,6-Tribenzyl-N-(naphthalen-2-ylmethyl)-2,4,7-trioxo-1,3,4,6,7,9,10,11-octahydro-2H-pyrrolo[2',1':3,4] pyrazino[1,2-a][1,3,5]triazine-9-carboxamide] | < 1
CCOC(=O)[C@@H]1CC[C@H]2N1C(=O)[C@@H](CC)N1C(=O)N(Cc3ccccc3)C(=O)N(Cc3ccccc3)[C@]21O [Compound 29A, Ethyl (6R,9S,11aR,11bR)-1,3-dibenzyl-6-ethyl-11b-hydroxy-2,4,7-trioxodecahydro-2H-pyrrolo[2',1':3,4]pyrazi no[1,2-a][1,3,5] triazine-9-carboxylate] | > 5
CC[C@@]1(C(C)C)C(=O)N2[C@H](C(=O)NCc3ccc4ccccc4c3)CC[C@@H]2[C@@]2(O)N(Cc3ccccc3)C(=O)N(Cc3ccccc3)C(=O)N21 [Compound 29D, (6R,9S,11aR,11bR)-1,3-Dibenzyl-6-ethyl-11b-hydroxy-6-isopropyl-N-(naphthalen-2-ylmethyl)-2,4,7-trioxodecahydro-2H-pyrrolo[2',1':3,4] pyrazino[1,2-a][1,3,5] triazine-9-carboxamide] | > 5

Reference: EP4707279A1, “SUBSTITUTED TRICYCLIC HETEROCYCLIC COMPOUND AS PHARMACEUTICAL FOR TREATMENT OR PREVENTION OF COVID-19” (priority 2023, dated 2024)
